Assay results taken from patent publication US20240024228A1, “Apremilast Ophthalmic Compositions” (APRAMITHA INNOVATIONS PRIVATE LIMITED, priority 2020, published 2024).

Key:
[1] = Solubility study of Apremilast in surfactants and their combinations; assay type: physicochemical
Experimental: The solubility of Apremilast was evaluated in various surfactants and their combinations:
About 50 mg of Apremilast (0.05% w/w) was weighed and dissolved in surfactant and or combination of surfactants at different ratios by heating at a temperature below 85° C. After complete solubilization of the Apremilast in the solubilizer matrix, purified water (q.s to 100%) was added, vortexed for 2 minutes and kept aside.

[2] = cited from earlier work
[3] = dissolved by heating below 85° C., water q.s., observed 24 hrs to 1 week

## CCOc1cc([C@@H](CS(C)(=O)=O)N2C(=O)c3cccc(NC(C)=O)c3C2=O)ccc1OC [Apremilast, N-[2-[(1S)-1-(3-ethoxy-4-methoxyphenyl)-2-(methylsulfonyl)ethyl]-1,3-dioxo-2,3-dihydro-1H-isoindol-4-yl]acetamide]
[1]
  Solubility in combination of surfactants (Tween 80 and Kolliphore E L) with PEG400: good solubility
[1]; PEG400 in combination with Tween 80/Kolliphore E L
  Stabilization of API: stabilized
[1]; Tween 80 / kolliphor E. L, 0.001-0.9% w/w of Apremilast
  Surfactant concentration sufficient to stabilise Apremilast: 4 % w/w
[1]; below 2-8% Tween80 / kolliphor E. L concentration
  Precipitation of Apremilast: precipitated out
[1]; combination of Tween 80 and kolliphor E. L
  Appearance of solution / prevention of precipitation: clear solution
[1]; [3]
  Solubility in Tween 80: good solubility
  Solubility in kolliphor E. L: good solubility
[1]; with 2-8% Tween80 and 2-8% kolliphor E. L
  Precipitation of Apremilast: not observed
[1]; with 5% PEG 400 alone
  Precipitation of Apremilast: precipitation was observed
[2]; polar solvents
  Solubility in polar solvents: minimal solubility
[2]; water
  Solubility in water: insolubility
